Source: patent US20260174778A1, “SULFONAMIDE COMPOUND, AND PREPARATION METHOD THEREFOR AND USE THEREOF” (SHANGHAI HENLIUS BIOTECH, INC., priority 2023, published 2026)

Each compound was assayed on breast cancer cell line ZR-75-1 (assay: Inhibition of proliferation of breast cancer cell line ZR-75-1 (CellTiter-Glo)). Conditions: Homo sapiens, 240 h, proliferation of ZR-75-1 cells, 10 days of incubation, read-out: IC50 (KAT6A).
Format: cell-based
Text: Test Example 1: Experiment for Determining Inhibitory Effects of Compounds on Proliferation of Breast Cancer Cell Line ZR-75-1
ATP is an indicator of the metabolism of living cells. The CellTiter-Glo® Luminescent Cell Viability Assay is a homogeneous assay method for determining the number of viable cells by quantifying ATP.
• 1) ZR-75-1 (Cell Bank of Chinese Academy of Sciences, TCHul26) • 2) RPMI-1640 medium (Gibco, 11875-093) • 3) Fetal Bovine Serum, New Zealand (Gibco,10091-148) • 4) Penicillin-streptomycin (10,000 U/mL) (Gibco, 15140-122) • 5) Trypsin-EDTA (0.25%), containing phenol red (Gibco, 25200-072) • 6) DPBS (Shanghai BasalMedia, B210KJ) • 7) Corning® 96-well Clear Flat Bottom Ultra-Low Attachment Microplate (Corning, Cat. No. 3474) • 8) 330 μL 96 Holes Deep Well Plate, transparents, 96 Round Holes, V-shaped Bottom, Low Retention (Stellar Scientific, DP33VR-9-NS) • 9) Corning® 96-well solid white flat-bottom polystyrene microplate (Corning, Cat. No. 3917) • 10) CellTiter-Glo® Luminescent Cell Viability Assay (Promega, G7573) • 11) Countstar® BioMed automatic cell counter • 12) Trypan blue solution, 0.4% (Gibco, Cat. No. 15250061) • 13) 37° C. constant-temperature incubator (Thermo, FORMA STERI-CYCLE i160 LK) • 14) Biosafety cabinet (Thermo, 1379)
• 1) The formula of the complete medium for ZR-75-1 was as follows: 500 mL RPMI-1640+10% FBS+1% penicillin-streptomycin. • 2) Thirty minutes before cell plating, the complete medium, serum, trypsin, and DPBS for use in ZR-75-1 cell culture were pre-warmed in a water bath at 37° C. • 3) The ZR-75-1 cells were taken out of the incubator, and the medium was removed by pipetting. The cells were rinsed once with 5 mL of DPBS, and then the DPBS was discarded. • 4) The cells in the T75 culture flask were digested with 1-3 mL of (0.25%) trypsin-EDTA. After the trypsin was added, the culture flask was incubated in an incubator at 37° C. for 2-5 min, and dispersion was confirmed by microscopic examination. Tapping or agitating the culture flask was avoided to prevent disturbing the cells, which might cause cell clumping. • 5) 9 mL of the complete medium was added to terminate the digestion, thus forming a cell suspension, which was then mixed well by pipetting. • 6) Cell suspension counting: 20 μL of the cell suspension was pipetted and diluted with 20 µL of the 0.4% trypan blue solution (Gibco, Cat. No. 15250061). The total cell count and the percentage of cell viability were determined using the Countstar® BioMed automatic cell counter. Only cells with a cell viability of no less than 95% were used for the experiment. • 7) The concentration of the cell suspension was adjusted to 2000 cells/well, and the cell suspension was added to a 96-well cell culture plate at 80 μL/well. Treatment of Cells with Compounds • 1) Twenty-four hours after cell plating, the cell plate was taken out. • 2) Each compound was prepared with a complete medium. The stock solution was a 10 mM solution in DMSO, which was first diluted with the medium to 100 μM, then diluted to 1 μM, and finally subjected to a 5-fold serial dilution across a total of 9 concentration gradients. • 3) 20 μL of the compound diluted with the medium was added to each well of the cell culture plate, which already contained 80 μL of the medium. The final concentration started at 200 nM, followed by a 5-fold serial dilution across a total of 9 concentration gradients. Two replicate wells were set for each compound, and each plate could be used to test 3 compounds, with the DMSO content controlled within 0.5%. • 4) The culture medium was replenished once every three days with a complete medium containing the same concentration of the test compound, with 20 μL/well added each time.
After 10 days of incubation with the compound, the cell culture plate was taken out, and the CellTiter-Glo® reagent was added at 50 μL/well. […]

Row | Structure (SMILES) | IC50 [nM]
1 | COc1cc(Cn2cccn2)cc2onc(NS(=O)(=O)c3ccccc3OC3CCC3)c12 [Compound 1, N-(6-((1H-Pyrazol-1-yl)methyl)-4-methoxybenzo[d]isoxazol-3-yl)-2-cyclobutoxybenzenesulfonamide] | 0.5 to 2
2 | COc1cc(Cn2cccn2)cc2onc(NS(=O)(=O)c3ccccc3OC3CC(F)(F)C3)c12 [Compound 2, N-(6-((1H-Pyrazol-1-yl)methyl)-4-methoxybenzo[d]isoxazol-3-yl)-2-(3,3-difluorocyclobutoxy)benzenesulfonamide] | 2 to 10
3 | COc1cc(Cn2cccn2)cc2onc(NS(=O)(=O)c3cc(C(C)(C)C)ccc3OC3CCC3)c12 [Compound 3, N-(6-((1H-Pyrazol-1-yl)methyl)-4-methoxybenzo[d]isoxazol-3-yl)-5-(tert-butyl)-2-cyclobutoxybenzenesulfonamide] | 2 to 10
4 | COc1cc(Cn2cccn2)cc2onc(NS(=O)(=O)c3cccc4c3OC(F)(F)O4)c12 [Compound 5, N-(6-((1H-Pyrazol-1-yl)methyl)-4-methoxybenzo[d]isoxazol-3-yl)-2,2-difluorobenzo[d][1,3]dioxole-4-sulfonamide] | ≥ 50
5 | CC(C)Oc1cc(Cn2cccn2)cc2onc(NS(=O)(=O)c3cc(C(C)(C)C)ccc3OC3CCC3)c12 [Compound 6, N-(6-((1H-Pyrazol-1-yl)methyl)-4-isopropoxybenzo[d]isoxazol-3-yl)-5-(tert-butyl)-2-cyclobutoxybenzenesulfonamide] | 2 to 10
6 | COc1c(F)c(Cn2cccn2)cc2onc(NS(=O)(=O)c3cc(C(C)(C)C)ccc3OC3CCC3)c12 [Compound 7, N-(6-((1H-Pyrazol-1-yl)methyl)-5-fluoro-4-methoxybenzo[d]isoxazol-3-yl)-5-(tert-butyl)-2-cyclobutoxybenzenesulfonamide] | 0.5 to 2
7 | CC(C)(C)c1ccc(OC2CCC2)c(S(=O)(=O)Nc2noc3cc(Cn4cccn4)c(C4CC4)cc23)c1 [Compound 8, N-(6-((1H-Pyrazol-1-yl)methyl)-5-cyclopropylbenzo[d]isoxazol-3-yl)-5-(tert-butyl)-2-cyclobutoxybenzenesulfonamide] | 10 to 50
8 | COc1cccc(OC)c1S(=O)(=O)Nc1noc2cc(Cn3cccn3)cc(OC(F)F)c12 [Compound 12, N-(6-((1H-Pyrazol-1-yl)methyl)-4-(difluoromethoxy)benzo[d]isoxazol-3-yl)-2,6-dimethoxybenzenesulfonamide] | 2 to 10
9 | COc1ccc(C(C)(C)O)cc1S(=O)(=O)Nc1noc2cc(Cn3cccn3)cc(OC)c12 [Compound 13, N-(6-((1H-Pyrazol-1-yl)methyl)-4-methoxybenzo[d]isoxazol-3-yl)-5-(2-hydroxypropan-2-yl)-2-methoxybenzenesulfonamide] | 0.5 to 2
10 | COc1ccc2c(c1S(=O)(=O)Nc1noc3cc(Cn4cccn4)cc(OC)c13)OCCC21CCC1 [Compound 15, N-(6-((1H-Pyrazol-1-yl)methyl)-4-methoxybenzo[d]isoxazol-3-yl)-7-methoxyspiro[chromane-4,1′-cyclobutane]-8-sulfonamide] | < 0.5
11 | COc1ccc2c(c1S(=O)(=O)Nc1noc3cc(Cn4cccn4)cc(OC)c13)OCO2 [Compound 17, N-(6-((1H-Pyrazol-1-yl)methyl)-4-methoxybenzo[d]isoxazol-3-yl)-5-methoxybenzo[d][1,3]dioxole-4-sulfonamide] | 0.5 to 2
12 | COc1ccc2c(c1S(=O)(=O)Nc1noc3cc(Cn4cccn4)cc(OC)c13)OCC2(C)C [Compound 20, N-(6-((1H-Pyrazol-1-yl)methyl)-4-methoxybenzo[d]isoxazol-3-yl)-6-methoxy-3,3-dimethyl-2,3-dihydrobenzofuran-7-sulfonamide] | 0.5 to 2
13 | COc1cccc(OC2CCC2)c1S(=O)(=O)Nc1noc2cc(Cn3cccn3)cc(OC)c12 [Compound 21, N-(6-((1H-Pyrazol-1-yl)methyl)-4-methoxybenzo[d]isoxazol-3-yl)-2-cyclobutoxy-6-methoxybenzenesulfonamide] | 2 to 10
14 | CCc1ccc(OC2CCC2)c(S(=O)(=O)Nc2noc3cc(Cn4cccn4)cc(OC)c23)c1 [Compound 22, N-(6-((1H-Pyrazol-1-yl)methyl)-4-methoxybenzo[d]isoxazol-3-yl)-2-cyclobutoxy-5-ethylbenzenesulfonamide] | 2 to 10
15 | COc1cc(Cn2cccn2)cc2onc(NS(=O)(=O)c3cc(C(C)C)ccc3OC3CCC3)c12 [Compound 23, N-(6-((1H-Pyrazol-1-yl)methyl)-4-methoxybenzo[d]isoxazol-3-yl)-2-cyclobutoxy-5-isopropylbenzenesulfonamide] | 2 to 10
16 | COc1cccc(OC)c1S(=O)(=O)Nc1nsc2cc(Cn3cccn3)ccc12 [Compound 25, N-(6-((1H-Pyrazol-1-yl)methyl)benzo[d]isothiazol-3-yl)-2,6-dimethoxybenzenesulfonamide] | ≥ 50

Further lines, results first:

Row | IC50 [nM] | Structure (SMILES)
17 | 10 to 50 | COc1cc(Cn2cccn2)cc2onc(NS(=O)(=O)c3cccc4c3OCO4)c12 [Compound 4, N-(6-((1H-Pyrazol-1-yl)methyl)-4-methoxybenzo[d]isoxazol-3-yl)benzo[d][1,3]dioxole-4-sulfonamide]
18 | ≥ 50 | COc1ccccc1S(=O)(=O)Nc1nsc2cc(Cn3cccn3)cc(OC)c12 [Compound 9, N-(6-((1H-Pyrazol-1-yl)methyl)-4-methoxybenzo[d]isothiazol-3-yl)-2-methoxybenzenesulfonamide]
19 | 2 to 10 | COc1cc(Cn2cccn2)cc2onc(NS(=O)(=O)c3cc(C(C)C)ccc3OCC(F)F)c12 [Compound 10, N-(6-((1H-Pyrazol-1-yl)methyl)-4-methoxybenzo[d]isoxazol-3-yl)-2-(2,2-difluoroethoxy)-5-isopropylbenzenesulfonamide]
20 | 2 to 10 | COc1ccccc1S(=O)(=O)Nc1noc2cc(Cn3cccn3)cc(OC(F)F)c12 [Compound 11, N-(6-((1H-Pyrazol-1-yl)methyl)-4-(difluoromethoxy)benzo[d]isoxazol-3-yl)-2-methoxybenzenesulfonamide]
21 | 0.5 to 2 | COc1ccc2c(c1S(=O)(=O)Nc1noc3cc(Cn4cccn4)cc(OC)c13)OCCO2 [Compound 14, N-(6-((1H-Pyrazol-1-yl)methyl)-4-methoxybenzo[d]isoxazol-3-yl)-6-methoxy-2,3-dihydrobenzo[b][1,4]dioxine-5-sulfonamide]
22 | < 0.5 | COc1ccc2c(c1S(=O)(=O)Nc1noc3cc(Cn4cccn4)cc(OC)c13)OCCC2(C)C [Compound 16, N-(6-((1H-Pyrazol-1-yl)methyl)-4-methoxybenzo[d]isoxazol-3-yl)-7-methoxy-4,4-dimethylchromane-8-sulfonamide]
23 | 2 to 10 | COc1ccc2c(c1S(=O)(=O)Nc1noc3cc(Cn4cccn4)cc(OC)c13)OC(C)(C)O2 [Compound 18, N-(6-((1H-Pyrazol-1-yl)methyl)-4-methoxybenzo[d]isoxazol-3-yl)-5-methoxy-2,2-dimethylbenzo[d][1,3]dioxole-4-sulfonamide]
24 | 2 to 10 | COc1ccc2c(c1S(=O)(=O)Nc1noc3cc(Cn4cccn4)cc(OC)c13)OC(C)(C)C2 [Compound 19, N-(6-((1H-Pyrazol-1-yl)methyl)-4-methoxybenzo[d]isoxazol-3-yl)-6-methoxy-2,2-dimethyl-2,3-dihydrobenzofuran-7-sulfonamide]
25 | 10 to 50 | COc1cccc(OC)c1S(=O)(=O)Nc1nsc2cc(Cn3cccn3)cc(OC)c12 [Compound 24, N-(6-((1H-Pyrazol-1-yl)methyl)-4-methoxybenzo[d]isothiazol-3-yl)-2,6-dimethoxybenzenesulfonamide]
